# From PMC9146423, “Discovery of Nitro-azolo[1,5-a]pyrimidines with Anti-Inflammatory and Protective Activity against LPS-Induced Acute Lung Injury” (Pharmaceuticals, 2022)
# Counter-ions that a name gives are not always drawn.
# Assays:
# [1] = tested on: LPS-stimulated peritoneal macrophages of C57bl/6j mice; experiment: Cell viability of LPS-stimulated macrophages, MTT test; format: cell-based; conditions: 100 μM
# Method: (§1) Peritoneal macrophages (PM) were isolated from the peritoneal exudate of 30 male C57bl/6j mice. To accumulate PM, 1 mL of 3% peptone solution was injected intraperitoneally. After 3 days, the mice were euthanized by cervical dislocation. Cells of peritoneal exudate were obtained by aseptic washing of the abdominal cavity with 5 mL of sterile Hanks’s solution (+4–6 °C) without calcium and magnesium ions. The total number and viability of cells were assessed in a Goryaev counting chamber (Russia) with a 0.4% trypan blue staining (Sigma-Aldrich, St. Louis, MO, USA). The cell concentration was adjusted to 1.0 × 10^6 cells/mL in DMEM (Gibco) supplemented with 2 mM L-glutamine (Gibco, Waltham, MA, USA), 10% heat-inactivated fetal bovine serum (BioClot, Bavaria, Germany), 100 U/mL penicillin, and […] streptomycin (Gibco) and plated 200 μL/well in 96-well transparent plates (SPL Life Sciences Co., Ltd., Pocheon-si, Korea). After 2 h at 37 °C in a humidified atmosphere with 5% CO2, the wells were washed to remove non-adherent cells. After 24 h of incubation, 20 μL of the supernatants were substituted with 20 μL of solutions of test compounds, followed by E. coli O127:B8 LPS (100 ng/mL final concentration) after 30 min. The experiments were run in 3 independent replicates.
# The activity of lactate dehydrogenase (LDH) in a cell culture medium served as a marker of membrane permeability and cell death. Aliquotes of supernatants were taken after 24 h of inoculation with test compounds, mixed with 250 μL of […] NADH solution in 54 mM phosphate-buffered saline (pH 7.5). Then, 25 μL of a 6.48 mM pyruvate solution was added to the mixture. The optical density was followed at a wavelength of 340 nm for 20 min. The MTT-test was performed 24 h after incubations of cells with tested compounds. Briefly, 20 μL of MTT solution was added to each well, incubated at 37 °C in a humidified atmosphere containing 5% CO2 for 4 h. The culture medium was removed, the cells were lysed, and formazan crystals were dissolved in 150 μL DMSO. The plates were shaken at room temperature for 10 min, and the optical density was measured in a microplate reader Infinite M200 PRO (Tecan, Grödig, Austria) at a wavelength of 565 nm.
# [2] = tested on: LPS-stimulated peritoneal macrophages of C57bl/6j mice; experiment: Inhibition of LPS-induced NO synthesis (nitrite accumulation, Griess reagent) in peritoneal macrophages; format: cell-based, mouse; conditions: 100 μM; for inhibition at 100 µM: Mus musculus, Peritoneal macrophage, 22 h, read-out: Inhibition of NO Synthesis vs. LPS Control; for inhibition at 100 µM / Inhibition of NO Synthesis vs. LPS Control: m ± SD
# Method: as §1
# The accumulation of the nitrite anion (a stable end product of NO decomposition produced by iNOS) in supernatants was determined using a standard Griess reagent. Briefly, 50 μL of supernatants were collected 22 h after incubation of PM, and the test and control compounds were mixed with 50 μL of 1% […] in 2.5% H3PO4 and 50 μL of 0.1% N-(1-naphthyl) ethylenediamine in 2.5% H3PO4. After incubation at 23 °C for 10 min in an orbital shaker, the optical density was determined at a wavelength of 550 nm with a microplate reader Infinite M200 PRO (Tecan, Grödig, Austria).
# [3] = tested on: peritoneal macrophages of C57bl/6j mice; experiment: Yeast phagocytosis assay and macrophage spreading; format: cell-based, mouse
# Method: Next, we evaluated lead compound 9g for immunodepressant activity in parallel with the reference drug dexamethasone. Yeast phagocytosis was assessed by microscopic examination as the number of phagocytes per 100 macrophages and as the number of phagocytosed yeast cells in each phagocyte. Cell viability was assessed as lactate dehydrogenase activity in cell supernatants, which correlates with increased cell membrane permeability.
# Peritoneal macrophages of C57bl/6j mice were cultured in a 24-well plate at a volume of 500 μL/well (1 × 10^5 cells/mL) for 24 h. Test compounds or DMSO were added to wells in triplicate followed by 50 μL of 1% yeast suspension, and the plates were incubated for 40 min. After 24 or 72 h, the medium was removed. The cells were fixed with May–Grunwald methanol dye and stained with Azur-Eosin in Romanovsky’s modification for 45 min at room temperature, washed, air-dried, and analyzed using a microscope Mikmed-6 (Russia), equipped with a digital camera. The study was performed in three technical replicates and two series; 100 macrophages were processed in each sample to count the captured yeast cells. Macrophage spreading was assessed as a number of pseudopodia.
# [4] = tested on: C57BL/6J mice; experiment: LPS-induced acute lung injury in mice; format: in vivo, mouse
# Method: The randomization of C57bl/6j mice into experimental and control groups was based on body weight and behavioral activity assessed in an open field test 24 h before the start of the experiment. The next day, mice were treated with vehicle or test compounds 1 h before intratracheal instillation of LPS solution in sterile saline.
# The randomization of C57BL/6J mice was performed by body weight and motor activity in an open field test. Dexamethasone (5 mg/kg) and 9g (30 mg/kg) were administered intraperitoneally in 10 mL/kg sterile saline. The control animals received an equal volume of the vehicle. After 1 h, the mice were anesthetized with isoflurane inhalation until their breathing rate was decreased. The mice were suspended by the front incisors on an inclined surgical table, the tongue was pulled out with narrow curved tweezers, and 1 mg/mL of E. coli O127:B8 LPS (Sigma-Aldrich, St. Louis, MO, USA) in 1 mL/kg sterile saline was injected into the back of the oropharynx. Intact control animals received an equal volume of sterile saline similarly.
# The animals were placed in the center of a round open field with an arena of 44 cm diameter and 32 cm wall height under 300 lux lighting. During 5 min of observation, horizontal motor activity, vertical motor activity, time spent in the central part, the number of exits to the central part, and exploratory activity parameters were recorded. Body temperature was determined rectally.
# The mice were anesthetized with 500 mg/kg chloral hydrate (Sigma-Aldrich, St. Louis, MO, USA) intraperitoneally 24 h after LPS administration. Blood was taken by intracardiac puncture in test tubes with heparin. The blood samples were centrifuged at 1000 g and 4 °C for 15 min on a 2–16PK centrifuge (Sigma, Germany), and plasma was separated and stored at −80 °C until the assay. Thoracotomy was performed, the ligature was applied to the left bronchus and the trachea was cannulated with a 20 G needle. The right lung was washed twice with 0.7 mL of warm sterile saline. After combining aliquots, the bronchoalveolar lavage (BAL) was centrifuged at 800 g and 4 °C for 10 min. The supernatant was separated and stored at −80 °C until the assay. The residual cell pellet was resuspended in 50 μL of PBS for further study. The left lung was washed in saline and placed in 10% buffered formalin for morphological evaluation.
# The total number of leukocytes in heparinized blood was determined after staining with methylene blue in Goryaev’s counting chamber at ×100 magnification. Smears of blood and BAL cell pellets were air-dried, fixed according to May–Grunwald for 3 min, and stained according to Romanowsky–Giemsa. After 30 min, the slides were washed, air-dried, and examined with immersion objective (×1000 total magnification). On each slide, a total of at least 100 cells were calculated.
# The concentration of total protein in BAL supernatants was determined spectrophotometrically with the pyrogallol red method, and the protein in the blood plasma was determined with the biuret method using commercial kits (Vital, Saint Petersburg, Russia) and bovine serum albumin as the standard. The lung permeability index was calculated as the protein concentration in the BAL to plasma ratio.
# Morphological markers of inflammation in lung tissue were assessed in a semi-quantitative way on paraffin sections stained with hematoxylin and eosin. The sections were examined under a light microscope (Zeiss, Germany) by a double-blind method. The score of inflammation was determined as follows: 0—the presence of single inflammatory cells; 1—weak inflammation, inflammatory cells infiltrate no more than 10% of the lung tissue, including interalveolar cell partitions; 2—moderate inflammation, inflammatory cells infiltrate no more than 50% of the structures of the lung, but the interstitial tissue is identified; 3—severe inflammation, inflammatory cells densely infiltrate more than 50% of the lung tissue and airways.
# [5] = 24 h after LPS, dexamethasone 5 mg/kg, 9g 30 mg/kg i.p.
smiles,measurement,setting,value
"C#CCSc1nc2ncc([N+](=O)[O-])c(NCCc3ccc(Cl)cc3)n2n1 [Compound 10f, N-(4-Chlorophenethyl)-6-nitro-2-(prop-2-yn-1-yl-sulfanyl)[1,2,4]triazolo[1,5-a]pyrimidin-7-amine]","Cell Viability vs. LPS Control, MTT Test","[1]; male, C57bl/6j, mouse, 24 h",38.37 ± 6.89 %
same,inhibition at 100 µM,[2],50.6 ± 1.27%
"Cc1nc2nnnn2c(NCCc2ccc(Cl)cc2)c1[N+](=O)[O-] [Compound 9f, N-[2-(4-Chlorophenyl)ethyl]-5-methyl-6-nitrotetrazolo-[1,5-a]pyrimidin-7-amine]","Cell Viability vs. LPS Control, MTT Test","[1]; male, C57bl/6j, mouse, 24 h",102.67 ± 6.35%
same,inhibition at 100 µM,[2],35.8 ± 4.45%
"Cc1[nH]c2nc(-c3ccc([N+](=O)[O-])o3)nn2c(=O)c1[N+](=O)[O-] [Compound 14, 2-(5-Nitrofur-2-yl)-5-methyl-6-nitro-1,2,4-triazolo[1,5-a]pyrimidin-7-one guanidinium salt]","Cell Viability vs. LPS Control, MTT Test",[1]; m ± SD,111.95 ± 8.67%
same,Inhibition of nitric oxide synthesis (in words),[2],did not demonstrate inhibition of nitric oxide synthesis
same,Inhibition of NO Synthesis vs. LPS Control,[2],16.09 ± 5.78%
"Cc1nc2nnnn2c(NC(C)C)c1[N+](=O)[O-] [Compound 9a, N-Isopropyl-5-methyl-6-nitrotetrazolo[1,5-a]pyrimidin-7-amine]","Cell Viability vs. LPS Control, MTT Test","[1]; male, C57bl/6j, mouse, 24 h",73.47 ± 12.07%
same,inhibition at 100 µM,[2],47.7 ± 6.98%
"Cc1nc2nnnn2c(NCC(O)CO)c1[N+](=O)[O-] (stereo not shown) [Compound 9e, 3-[(5-Methyl-6-nitrotetrazolo[1,5-a]pyrimidin-7-yl)-amino]propane-1,2-diol]","Cell Viability vs. LPS Control, MTT Test","[1]; male, C57bl/6j, mouse, 24 h",94.98 ± 12.48%
same,inhibition at 100 µM,[2],21.5 ± 2.74%
"C#CCSc1nc2ncc([N+](=O)[O-])c(NCCc3ccc(O)cc3)n2n1 [Compound 10g, 4-{2-[(6-Nitro-2-(prop-2-yn-1-ylsulfanyl)[1,2,4]triazolo[1,5-a]pyrimidin-7-yl)amino]ethyl}phenol]","Cell Viability vs. LPS Control, MTT Test","[1]; male, C57bl/6j, mouse, 24 h",30.9 ± 7.7 %
same,inhibition at 100 µM,[2],28.5 ± 3.21%
"Cc1[nH]c2nc(-c3ccc([N+](=O)[O-])o3)nn2c(=O)c1[N+](=O)[O-] [Compound 13, 2-(5-Nitrofur-2-yl)-5-methyl-6-nitro-1,2,4-triazolo[1,5-a]pyrimidin-7-one aminoguanidinium salt]","Cell Viability vs. LPS Control, MTT Test",[1]; m ± SD,96.97 ± 7.18%
same,Inhibition of nitric oxide synthesis (in words),[2],comparable to that of the tetrazolopyrimidine series
same,Inhibition of NO Synthesis vs. LPS Control,[2],58.97 ± 7.07 %
"Cc1nc2nnnn2c(NCCCO)c1[N+](=O)[O-] [Compound 9d, 3-[(5-Methyl-6-nitrotetrazolo[1,5-a]pyrimidin-7-yl)-amino]propanol]","Cell Viability vs. LPS Control, MTT Test","[1]; male, C57bl/6j, mouse, 24 h",116.6 ± 8.97%
same,inhibition at 100 µM,[2],40.3 ± 5.14%
"Cc1nc2nnnn2c(NC(C)(C)C)c1[N+](=O)[O-] [Compound 9b, N-Tert-Butyl-5-methyl-6-nitrotetrazolo[1,5-a]pyrimidin-7-amine]","Cell Viability vs. LPS Control, MTT Test","[1]; male, C57bl/6j, mouse, 24 h",104.9 ± 5.87%
same,inhibition at 100 µM,[2],37 ± 3.25%
"C[C@@H]1C[C@H]2[C@@H]3CCC4=CC(=O)C=C[C@]4(C)[C@@]3(F)[C@@H](O)C[C@]2(C)[C@@]1(O)C(=O)CO [Dexamethasone, reference compound]","Cell Viability vs. LPS Control, MTT Test","[1]; male, C57bl/6j, mouse, 24 h",104.21 ± 2.18%
same,Inhibition of NO Synthesis vs. LPS Control,[2],90.91 ± 5.53 %
same,Suppression of phagocytosis,"[3]; after 24-h of incubation, data not shown",significantly suppressed phagocytosis
same,Decrease of the mean number of phagocytosed yeast cells,[3]; after 72 h of incubation,59%
same,Blood leukocyte subpopulations,[4]; 24 h after LPS,normalized leukocyte subpopulations to the values of intact animals
same,"CD68+ cells in lung tissue, immunostaining",[4]; 24 h after LPS,rarely detected
same,"LPS-induced lung lesions, histologic scoring (hemorrhage and neutrophil infiltration)","[4]; 24 h after LPS, H&E, semi-quantitative",significantly ameliorated
same,Blood plasma IL-6 level,[4]; [5],normalized the blood plasma IL-6 level
same,Permeability of pulmonary vessels (lung permeability index),[4]; [5],prevent the increase in permeability of pulmonary vessels
same,"Horizontal motor activity, open field test","[4]; 24 h after LPS, dexamethasone 5 mg/kg, 9g 30 mg/kg i.p. 1 h before LPS",significant improvement
same,Segmented neutrophils count in BAL (in words),"[4]; 24 h after LPS, monocytes in BAL increased",significantly decreased the segmented neutrophils count
same,Spleen mass and lymphocyte content (markers of immunodepression),"[4]; LPS-treated mice, dexamethasone 5 mg/kg, 9g 30 mg/kg i.p.",significantly reduced
same,LPS-induced hypothermia,[4]; body temperature determined rectally,attenuated LPS-induced hypothermia
same,"Segmented neutrophils, share of BAL cells","[4]; bronchoalveolar lavage 24 h after LPS, dexamethasone 5 mg/kg, 9g 30 mg/kg i.p.",22.5%
same,"Number of center entries and time in the center, open field test","[4]; dexamethasone 5 mg/kg, 9g 30 mg/kg i.p.",restored the number of center entries and time in the center to intact levels
"Cc1nc2nnnn2c(NCCO)c1[N+](=O)[O-] [Compound 9c, 2-[(5-Methyl-6-nitrotetrazolo[1,5-a]pyrimidin-7-yl)-amino]ethanol]","Cell Viability vs. LPS Control, MTT Test","[1]; male, C57bl/6j, mouse, 24 h",109.0 ± 2.00%
same,inhibition at 100 µM,[2],54.2 ± 11.5%
